Literature values, collected in patent US7385060B2, “Method for producing salts of tolperisone” (Sanochemia Pharmazeutika AG, priority 2002, dated 2008).

Columns and labels:
HMN = details: inhalation, human, 30 m
RAT = details: oral

For `C=O` [formaldehyde], the “IHL-TCLO HMN” value (HMN) is given as 17 mg/m^3/30 m and the “ORL-RAT LD50” value (RAT) is given as 100 mg/kg.
